This passage reports IC50 and tumor metastasis results from US20030158199A1, “Novel compounds for inhibition of Tie-2” (KYLIX, B.V., priority 2002, published 2003).

Where a name gives a salt, the structure may show the parent alone. Bounds are passed on as bounds.

Assay [1] concerns the target T1, Tie-2 (Homo sapiens, UniProt Q02763).
T1 construct: GST-Tie2/Tek (aa 771-1124); GST (N); purchased ProQuinase, Freiburg; host or cells: baculovirus infected insect cells Sf9
In words: RTK ELISA, recombinant kinase domain, Tie-2. As to conditions: GST-Tie2/Tek (aa 771-1124) expressed in baculovirus infected insect cells. Type of assay: biochemical. The protocol:
(§1) Follwing IC50 values were determined in the RTK ELISA using recombinant kinase domains of receptor tyrosine kinases which were expressed in baculovirus infected insect cells.
(§2) Receptor Tyrosine Kinase Assay
(§3) The following in vitro assays are used to determine the ability of different compounds to inhibit the transfer of phosphate groups onto tyrosine residues of downstream substrates. The level of phosphorylation is measured by a monoclonal antibody which is specific for phosphorylated tyrosine residues in an enzyme-linked immunosorbent assay (ELISA).
(§4) The following recombinant kinases were expressed in baculovirus infected insect cells Sf9 and purchased from ProQuinase, Freiburg:
(§5) If not otherwise indicated all steps are performed at room temperature.
(§6) 1.) Coat wells of ELISA plate with […] Poly-Glu-Tyr 4:1 in 100 μl/well PBS buffer (137 mM NaCl, 3 mM KCl, 1.5 mM KH2PO4, 8.2 mM Na2HPO4) overnight at 4° C.
(§7) 2.) Wash 2 times for 5 min each with PBS+0.05% Tween20 […]
(§8) a) Add 5-30 ng/well kinase in 50 μl/well kinase buffer (100 mM HEPES pH 7.4, 100 mM NaCl, 0.1 mM Na3VO4) b) Add 25 μl/well compound (50 and 5 μM) in 5% DMSO c) Add 25 μl/well 100 μM ATP in 40 mM MnCl2
(§9) 4.) Wash 3 times for 5 min each with PBS+0.05% Tween20
(§10) 5.) Add anti phosphotyrosin antibody/HRP 1:10.000 in 100 μl/well PBS+0.05% Tween+0.1 BSA, incubate for 1 h
(§11) 6.) Wash 3 times for 5 min each with PBS+0.05% Tween20
(§12) 7.) Chemoluminescence reaction: a.) Premix 25 μl/well BM CLS Solution 1 with 0.25 μl/well BM CLS Solution 2 b.) Preincubate for 15 min […]
(§13) d.) Add 50 μl/well substrate solution to microtiter wells e.) Incubate for at least 1 min
(§14) 8.) Detect chemoluminescence signals in Tecan Genios reader
In general terms: An ELISA detects its analyte on a solid surface through an enzyme-linked reagent.

Assay [2] has as its target T2, KDR (Homo sapiens, UniProt P35968).
T2 construct: GST-KDR (aa807-1356); GST (N); purchased ProQuinase, Freiburg; host or cells: baculovirus infected insect cells Sf9
In words: RTK ELISA, recombinant kinase domain, KDR. The conditions noted are these: GST-KDR (aa807-1356) expressed in baculovirus infected insect cells. It counts as biochemical. The protocol:
as §1, §2, §3, §4, §5, §6, §7, §8, §9, §10, §11, §12, §13, §14

For assay [3], the target named is T3, c-Met (Homo sapiens, UniProt P08581).
T3 construct: GST-cMet (aa956-1390); GST (N); purchased ProQuinase, Freiburg; host or cells: baculovirus infected insect cells Sf9
The assay is described as follows: RTK ELISA, recombinant kinase domain, c-Met. Type of assay: biochemical. As to conditions: GST-cMet (aa956-1390) expressed in baculovirus infected insect cells. The method, then: as §1, §2, §3, §4, §5, §6, §7, §8, §9, §10, §11, §12, §13, §14

In assay [4] the test system is tumor metastasis. The conditions noted are these: delivered at the time of surgical excision of primary tumors, mouse model; cited from earlier work.

T2 sequence (P35968 807-1356): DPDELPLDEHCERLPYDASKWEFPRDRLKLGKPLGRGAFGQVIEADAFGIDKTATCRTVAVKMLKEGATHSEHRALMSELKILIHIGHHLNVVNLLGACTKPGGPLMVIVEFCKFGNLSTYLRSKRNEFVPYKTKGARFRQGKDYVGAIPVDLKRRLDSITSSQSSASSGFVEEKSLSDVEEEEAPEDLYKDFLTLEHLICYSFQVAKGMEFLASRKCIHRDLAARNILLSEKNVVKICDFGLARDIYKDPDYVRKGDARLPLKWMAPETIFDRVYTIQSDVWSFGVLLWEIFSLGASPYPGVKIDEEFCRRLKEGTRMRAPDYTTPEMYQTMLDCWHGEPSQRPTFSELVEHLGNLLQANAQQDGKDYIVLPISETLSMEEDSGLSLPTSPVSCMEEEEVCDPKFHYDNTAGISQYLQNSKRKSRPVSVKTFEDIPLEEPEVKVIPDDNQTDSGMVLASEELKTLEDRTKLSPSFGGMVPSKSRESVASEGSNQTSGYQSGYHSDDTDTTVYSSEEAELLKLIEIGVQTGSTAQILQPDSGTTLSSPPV
T3 sequence (P08581 956-1390): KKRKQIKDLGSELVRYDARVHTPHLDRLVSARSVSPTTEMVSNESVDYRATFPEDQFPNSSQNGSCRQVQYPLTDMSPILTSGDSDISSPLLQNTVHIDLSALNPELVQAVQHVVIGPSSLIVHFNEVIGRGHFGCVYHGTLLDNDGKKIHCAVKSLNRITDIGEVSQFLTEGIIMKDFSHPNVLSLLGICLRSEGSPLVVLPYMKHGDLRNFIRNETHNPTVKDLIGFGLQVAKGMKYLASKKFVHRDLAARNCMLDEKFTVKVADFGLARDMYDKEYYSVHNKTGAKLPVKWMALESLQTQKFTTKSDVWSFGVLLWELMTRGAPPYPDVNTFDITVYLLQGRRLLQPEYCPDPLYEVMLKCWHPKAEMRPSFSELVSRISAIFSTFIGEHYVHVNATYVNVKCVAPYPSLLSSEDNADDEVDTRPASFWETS
T1 sequence (Q02763 771-1124): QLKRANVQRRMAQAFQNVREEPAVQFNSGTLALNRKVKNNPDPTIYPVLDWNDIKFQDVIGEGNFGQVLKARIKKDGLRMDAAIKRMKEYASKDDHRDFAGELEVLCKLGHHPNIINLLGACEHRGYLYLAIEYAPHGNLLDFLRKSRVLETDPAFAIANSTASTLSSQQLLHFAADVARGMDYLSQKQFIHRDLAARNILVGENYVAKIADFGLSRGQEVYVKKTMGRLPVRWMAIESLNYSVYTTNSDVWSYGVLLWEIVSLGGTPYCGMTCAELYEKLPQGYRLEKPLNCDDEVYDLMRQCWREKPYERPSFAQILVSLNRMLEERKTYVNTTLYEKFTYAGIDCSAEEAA

By IC50 is commonly meant the concentration that gives 50% inhibition. As for `O=C(O)c1ccc(Nc2nc(-c3ccc(N4CCCC4)cc3)cs2)cc1` [Number 20, 4-[4-(4-pyrrolidin-1-yl-phenyl)-thiazol-2-ylamino]-benzoic Acid Hydrobromide], the IC50 in assay [1] was < 1 µM; in assay [2], 1 µM; in assay [3] it was > 10 µM.

For the molecule `CCN(CC)c1ccc(-c2csc(Nc3cccnc3)n2)cc1` [Number 30], the values for the half-maximal inhibitory concentration (IC50) in assay [1], in assay [2] and in assay [3] were 0.8 µM, 3 µM and > 50 µM, respectively.

On to `c1cncc(-c2nc(-c3ccc(N4CCCC4)cc3)co2)c1` [Number 14, 3-[4-(4-pyrrolidin-1-yl-phenyl)-oxazol-2-yl]-pyridine Hydrobromide], for which the IC50 was 5 µM in assay [1], > 50 µM in assay [2] and > 25 µM in assay [3].

Turning to `CCN(CC)c1ccc(-c2csc(NCc3ccccc3)n2)cc1` [Number 28, benzyl-[4-(4-diethylamino-phenyl)-thiazol-2-yl]-amine Hydrobromide], the IC50 in assay [1], in assay [2] and in assay [3] was > 50 µM each time.

`CCN(CC)c1ccc(-c2coc(N)n2)cc1` [Number 24, 4-(4-diethylamino-phenyl)-oxazol-2-ylamine Hydrobromide]: the IC50 in assay [1] was 5 µM; in assay [2], 1.5 µM; in assay [3] it was > 50 µM.

Consider `CCN(CC)c1ccc(-c2csc(Nc3ccccn3)n2)cc1` [Number 29, [4-(4-diethylamino-phenyl)-thiazol-2-yl)-pyridin-2-yl-amine Hydrobromide], for which the 50% inhibitory concentration (IC50) in assay [1], in assay [2] and in assay [3] was > 50 µM throughout.

With `CCN(CC)c1ccc(-c2csc(Nc3cccc(C(F)(F)F)c3)n2)cc1` [Number 32, [4-(4-diethylamino-phenyl)-thiazol-2-yl-(3-trifluoromethyl-phenyl)-amine Hydrobromide], the results for the half-inhibitory concentration (IC50) in assay [1], in assay [2] and in assay [3] were 3 µM, 5 µM and > 50 µM, respectively.

B1: Ad-ExTek: a soluble adenoviral expressed extracellular domain of Tie-2 (protein, UniProt Q02763 23-748, looked up)
extracellular domain: AMDLILINSLPLVSDAETSLTCIASGWRPHEPITIGRDFEALMNQHQDPLEVTQDVTREWAKKVVWKREKASKINGAYFCEGRVRGEAIRIRTMKMRQQASFLPATLTMTVDKGDNVNISFKKVLIKEEDAVIYKNGSFIHSVPRHEVPDILEVHLPHAQPQDAGVYSARYIGGNLFTSAFTRLIVRRCEAQKWGPECNHLCTACMNNGVCHEDTGECICPPGFMGRTCEKACELHTFGRTCKERCSGQEGCKSYVFCLPDPYGCSCATGWKGLQCNEACHPGFYGPDCKLRCSCNNGEMCDRFQGCLCSPGWQGLQCEREGIQRMTPKIVDLPDHIEVNSGKFNPICKASGWPLPTNEEMTLVKPDGTVLHPKDFNHTDHFSVAIFTIHRILPPDSGVWVCSVNTVAGMVEKPFNISVKVLPKPLNAPNVIDTGHNFAVINISSEPYFGDGPIKSKKLLYKPVNHYEAWQHIQVTNEIVTLNYLEPRTEYELCVQLVRRGEGGEGHPGPVRRFTTASIGLPPPRGLNLLPKSQTTLNLTWQPIFPSSEDDFYVEVERRSVQKSDQQNIKVPGNLTSVLLNNLHPREQYVVRARVNTKAQGEWSEDLTAWTLSDILPPQPENIKISNITHSSAVISWTILDGYSISSITIRYKVQGKNEDQHVDVKIKNATITQYQLKGLEPETAYQVDIFAENNIGSSNPAFSHELVTLPESQAPADLGGGKMLL
modifications: extracellular domain
Turning to B1, the tumor metastasis entry in assay [4] is given as “inhibited tumor metastasis”.
